Active and inactive are the calls of the source.
What was measured:
[1] = molecular target: T1, Sentrin-specific protease 7 (Homo sapiens, UniProt Q9BQF6); format: functional;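 note: Luminescence-based dose-response confirmation of ultra-high-throughput screening hits, measuring inhibition of SENP7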
T1 sequence (Q9BQF6 whole entry): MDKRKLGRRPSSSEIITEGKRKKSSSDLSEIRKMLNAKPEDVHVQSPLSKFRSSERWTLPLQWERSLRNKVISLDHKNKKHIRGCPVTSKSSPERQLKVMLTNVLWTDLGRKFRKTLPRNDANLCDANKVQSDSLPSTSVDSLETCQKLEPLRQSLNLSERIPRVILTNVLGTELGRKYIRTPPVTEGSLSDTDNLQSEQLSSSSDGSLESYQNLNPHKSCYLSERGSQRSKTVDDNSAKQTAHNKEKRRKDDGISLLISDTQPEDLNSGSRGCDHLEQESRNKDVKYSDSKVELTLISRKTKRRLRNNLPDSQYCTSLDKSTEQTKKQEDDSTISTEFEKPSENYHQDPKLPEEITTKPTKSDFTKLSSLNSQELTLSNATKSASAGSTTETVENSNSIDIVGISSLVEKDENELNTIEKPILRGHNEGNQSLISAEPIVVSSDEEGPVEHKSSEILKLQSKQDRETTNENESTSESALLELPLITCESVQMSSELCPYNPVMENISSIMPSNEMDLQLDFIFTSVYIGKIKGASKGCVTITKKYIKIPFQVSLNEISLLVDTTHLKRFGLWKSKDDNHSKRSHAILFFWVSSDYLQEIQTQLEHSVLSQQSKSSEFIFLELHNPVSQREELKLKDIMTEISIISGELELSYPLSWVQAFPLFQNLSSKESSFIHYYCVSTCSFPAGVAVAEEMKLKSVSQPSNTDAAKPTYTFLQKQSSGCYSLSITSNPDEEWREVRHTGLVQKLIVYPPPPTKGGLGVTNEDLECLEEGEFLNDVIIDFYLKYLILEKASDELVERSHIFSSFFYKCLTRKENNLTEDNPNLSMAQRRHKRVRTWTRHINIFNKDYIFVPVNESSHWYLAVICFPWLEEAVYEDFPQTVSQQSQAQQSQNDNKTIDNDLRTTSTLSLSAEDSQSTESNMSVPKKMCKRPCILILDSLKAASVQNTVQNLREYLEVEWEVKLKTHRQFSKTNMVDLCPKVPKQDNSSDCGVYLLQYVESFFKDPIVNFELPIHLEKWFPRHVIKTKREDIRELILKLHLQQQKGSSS

Caspase-3 = molecular target: T2, Caspase-3 (Homo sapiens, UniProt P42574); format: functional;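 note: Dose-response selectivity test against caspase-3 for candidate inhibitors of sentrin-specific proteases (SENPs)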
T2 sequence (P42574 whole entry): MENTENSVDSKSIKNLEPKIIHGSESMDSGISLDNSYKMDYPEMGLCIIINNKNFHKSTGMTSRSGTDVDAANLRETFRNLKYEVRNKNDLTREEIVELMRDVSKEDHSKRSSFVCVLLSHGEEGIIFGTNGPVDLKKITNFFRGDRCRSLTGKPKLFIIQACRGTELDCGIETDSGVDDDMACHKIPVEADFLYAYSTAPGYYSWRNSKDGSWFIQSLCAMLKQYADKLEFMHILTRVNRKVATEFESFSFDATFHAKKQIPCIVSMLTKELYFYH

[2] = molecular target: T3, Sentrin-specific protease 8 (Homo sapiens, UniProt Q96LD8); format: functional;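 note: luminescence read-out of SENP8 inhibition, dose-response confirmation following an ultra-high-throughput screen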
T3 sequence (Q96LD8 whole entry): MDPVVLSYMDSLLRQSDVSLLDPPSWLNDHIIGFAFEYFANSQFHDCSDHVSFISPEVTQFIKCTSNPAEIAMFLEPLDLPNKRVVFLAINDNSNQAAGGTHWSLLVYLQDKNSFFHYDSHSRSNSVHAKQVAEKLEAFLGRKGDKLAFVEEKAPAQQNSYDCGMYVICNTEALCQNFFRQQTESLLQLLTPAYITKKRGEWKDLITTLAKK

[3] = molecular target: T4, Sentrin-specific protease 6 (Homo sapiens, UniProt Q9GZR1); format: functional;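 note: Luminescence-based dose-response confirmatory assay of SENP6 inhibition, following up an ultra-high-throughput screen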
T4 sequence (Q9GZR1 whole entry): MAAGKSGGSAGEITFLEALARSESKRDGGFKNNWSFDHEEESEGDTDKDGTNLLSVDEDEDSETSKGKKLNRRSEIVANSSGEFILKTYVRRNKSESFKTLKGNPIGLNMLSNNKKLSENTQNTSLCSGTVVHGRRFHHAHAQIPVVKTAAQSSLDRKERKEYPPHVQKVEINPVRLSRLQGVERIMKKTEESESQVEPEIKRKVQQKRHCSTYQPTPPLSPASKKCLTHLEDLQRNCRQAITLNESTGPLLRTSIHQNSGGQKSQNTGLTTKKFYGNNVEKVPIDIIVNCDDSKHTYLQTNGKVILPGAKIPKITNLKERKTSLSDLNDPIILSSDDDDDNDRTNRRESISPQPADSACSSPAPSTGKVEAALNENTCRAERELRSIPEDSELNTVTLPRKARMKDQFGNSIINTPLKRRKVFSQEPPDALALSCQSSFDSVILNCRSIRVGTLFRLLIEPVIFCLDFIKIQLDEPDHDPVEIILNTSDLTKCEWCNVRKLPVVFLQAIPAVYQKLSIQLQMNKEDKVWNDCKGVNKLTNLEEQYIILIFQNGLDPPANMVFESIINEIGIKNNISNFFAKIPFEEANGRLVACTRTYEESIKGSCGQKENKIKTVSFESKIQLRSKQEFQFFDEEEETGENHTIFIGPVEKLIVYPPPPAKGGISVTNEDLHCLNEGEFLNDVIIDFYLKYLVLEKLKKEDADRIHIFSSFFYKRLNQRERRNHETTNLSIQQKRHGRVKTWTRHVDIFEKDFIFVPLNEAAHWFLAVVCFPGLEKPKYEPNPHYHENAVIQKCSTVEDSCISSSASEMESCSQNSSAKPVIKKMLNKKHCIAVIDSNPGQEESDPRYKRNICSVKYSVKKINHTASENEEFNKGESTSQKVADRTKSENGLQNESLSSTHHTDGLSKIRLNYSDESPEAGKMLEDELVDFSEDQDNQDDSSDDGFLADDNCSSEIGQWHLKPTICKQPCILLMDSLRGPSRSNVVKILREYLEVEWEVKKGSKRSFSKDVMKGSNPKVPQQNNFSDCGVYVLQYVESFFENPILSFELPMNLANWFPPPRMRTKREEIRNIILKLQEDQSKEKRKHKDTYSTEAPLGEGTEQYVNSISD

[4] = molecular target: T5, Oxysterols receptor LXR-beta (Homo sapiens, UniProt P55055); format: functional, cell-based;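 note: Cell-based luminescence dose-response assay of agonist activity at LXR, run as a confirmatory counterscreen to a daf-12 agonist screen; HEK293 cells with Gal4-LXR fusion and GAL4-driven luciferase reporter; agonist potency from rising luciferase signal of a Gal4-LXR reporter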
T5 sequence (P55055 whole entry): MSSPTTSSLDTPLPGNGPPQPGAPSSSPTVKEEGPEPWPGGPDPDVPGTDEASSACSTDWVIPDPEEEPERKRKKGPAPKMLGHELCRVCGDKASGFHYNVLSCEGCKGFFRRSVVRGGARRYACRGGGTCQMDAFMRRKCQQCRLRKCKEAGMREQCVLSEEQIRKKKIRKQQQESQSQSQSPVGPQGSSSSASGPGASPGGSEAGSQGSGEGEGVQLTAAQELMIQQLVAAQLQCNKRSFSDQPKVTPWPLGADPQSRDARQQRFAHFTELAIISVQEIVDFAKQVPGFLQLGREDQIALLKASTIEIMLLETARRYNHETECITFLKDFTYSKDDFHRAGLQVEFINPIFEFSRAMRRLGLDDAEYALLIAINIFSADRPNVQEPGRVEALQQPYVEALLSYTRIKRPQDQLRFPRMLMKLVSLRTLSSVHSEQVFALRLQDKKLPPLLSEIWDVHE

[5] = cytotoxicity in OV-90 ovarian cancer cells, dose response, PAX8 inhibitor project, cell-based, plate reader, dry powder, SA8 (AID 743149); format: functional
[6] = cytotoxicity in COV434 cells, dose response, cytotoxicity control for PAX8 inhibitor project, cell-based, plate reader, dry powder, SA7 (AID 743145); format: functional
[7] = IOSE-T80 ovarian epithelial cell cytotoxicity, dose response, cytotoxicity control for PAX8 inhibitor project, plate reader, dry powder samples (AID 743045); format: functional, cell-based
[8] = NIH:OVCAR-3 ovarian cancer cell cytotoxicity, dose response, PAX8 inhibitor project, plate reader, dry powder samples (AID 743044); format: functional, cell-based
Paired box protein Pax-8 = Paired box protein Pax-8 (Homo sapiens, UniProt Q06710); assay: inhibitors of PAX8-driven TPO luciferase reporter, dose response, RMG-I cells, cherry-pick (AID 687027); format: functional, cell-based;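 note: luciferase reporter driven by Pax8 target thyroperoxidase promoter measured by SteadyGlo luminescence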
Paired box protein Pax-8, sequence (Q06710 whole entry): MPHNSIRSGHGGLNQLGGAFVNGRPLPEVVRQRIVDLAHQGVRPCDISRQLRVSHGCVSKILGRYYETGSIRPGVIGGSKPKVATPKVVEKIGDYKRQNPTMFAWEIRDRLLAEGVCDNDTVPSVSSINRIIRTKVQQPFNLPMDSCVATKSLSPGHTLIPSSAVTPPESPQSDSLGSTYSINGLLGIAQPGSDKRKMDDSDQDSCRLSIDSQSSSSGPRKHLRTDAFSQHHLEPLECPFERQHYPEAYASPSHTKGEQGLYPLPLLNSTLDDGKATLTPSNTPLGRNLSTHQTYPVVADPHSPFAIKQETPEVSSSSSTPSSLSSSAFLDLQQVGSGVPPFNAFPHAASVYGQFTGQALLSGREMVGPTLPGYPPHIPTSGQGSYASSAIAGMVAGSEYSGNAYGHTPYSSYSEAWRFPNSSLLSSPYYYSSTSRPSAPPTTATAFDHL

[9] = cytotoxicity dependent on PAX8, dose response, cell-based, plate reader, dry powder (AID 743049); format: functional
[10] = cytotoxicity in OVCAR4 cells, dose response, cytotoxicity control for PAX8 inhibitor project, cell-based, plate reader, dry powder, SA11 (AID 743150); format: functional; conditions: OVCAR-4
HEK293 = assay: HEK293T cell cytotoxicity, dose response, cytotoxicity control, ATP luminescence, cherry-pick samples (AID 687005); format: functional, cell-based; conditions: Homo sapiens;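 note: cells exposed to compound for 48 hours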
[11] = HEK293 Cytotoxicity Assay Measured in Cell-Based System Using Plate Reader - 7071-01_Inhibitor_Dose_CherryPick_Activity_Set2.; format: functional
[12] = inhibitors of PGC1a acetylation in cells, dose response, cell-based, cherry-picked samples (AID 720514); format: functional;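 note: potency may reflect raised or lowered acetylation signal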

Nc1nc(-c2ccccc2)nc2sc3c(c12)CCCC3
inactive: EC50 [4] > 67.5 µM | EC50 (cells) > 67.5 µM
active: IC50 [1] 3.08 µM | IC50 (Caspase-3) 19 µM | IC50 [2] 5.99 µM | IC50 [3] 10 µM

Cc1ccc(-c2csc(NC3OC(=O)c4ccccc43)n2)cc1 (stereo not drawn)
active: AC50 [5] 23.1 µM | AC50 [6] 0.0641 µM | AC50 [7] 33.7 µM | AC50 [8] 28.3 µM | AC50 (Paired box protein Pax-8) 7.58 µM | AC50 [9] 13 µM | AC50 [10] 17.3 µM

C[C@@H]1CCCCO[C@@H](CN(C)S(=O)(=O)c2ccccc2)[C@H](C)CN([C@@H](C)CO)C(=O)c2cc(NC(=O)Nc3ccc(F)cc3)ccc2O1
active: AC50 (HEK293) 21.6 µM | AC50 [11] 21.6 µM

O=C(C[C@H]1CC[C@@H]2[C@H](COC[C@@H](O)CN2C(=O)c2cnccn2)O1)NCc1ccc(Oc2ccccc2)cc1
active: AC50 (HEK293) 35.7 µM | AC50 [11] 35.7 µM

N#C[C@H]1[C@H](c2ccc(C#CC3CCCC3)cc2)[C@H](CO)N1C(=O)Cc1ccccn1
active: AC50 [12] 20.4 µM

Reference: ChEMBL document CHEMBL1201862, “PubChem BioAssay data set” (2004)
